Experimental data as given in US8802664B2 (Bioproject, priority 2010, dated 2014).
Where a name gives a salt, the structure may show the parent alone.

Compound | melting point
CCCCOc1cccc(C(NC2CCN(C)CC2)c2nc3ccccc3s2)c1 (stereo not shown) (as salt: oxalate) [Example 91, [benzothiazol-2-yl(3-butoxyphenyl)methyl](1-methylpiperidin-4-yl)amine] | 176 °C
CN1CCC(OC(c2cccc(CCCCCN)c2)c2nc3ccccc3s2)CC1 (stereo not shown) (as salt: hydrochloride) [Example 289, 5-{3-[benzothiazol-2-yl(1-methylpiperidin-4-yloxy)methyl]phenyl}pentylamine] | 110 °C
Cc1ccc2sc(C(OC3CCN(C)CC3)c3ccccc3)nc2c1 (stereo not shown) (as salt: oxalate) [Example 29, 5-methyl-2-[(1-methylpiperidin-4-yloxy)phenylmethyl]benzothiazole] | 175 °C
CN1CCC(OC(c2cccc(OCC=CCO)c2)c2nc3ccccc3s2)CC1 (stereo not shown) (as salt: oxalate) [Example 422, 4-{3-[benzothiazol-2-yl(1-methylpiperidin-4-yloxy)methyl]phenoxy}but-2-en-1-ol] | 73 °C
Cc1cc(F)c(C(OC2CCN(C)CC2)c2nc3ccccc3o2)c(F)c1 (stereo not shown) (as salt: oxalate) [Example 536] | 114 °C
CN1CCC(NC(c2cccc(F)c2)c2nc3ccccc3[nH]2)CC1 (stereo not shown) (as salt: oxalate) [Example 74, [(1H-benzimidazol-2-yl)(3-fluorophenyl)methyl](1-methylpiperidin-4-yl)amine] | 155 °C
CN1CCC(OC(c2cccc(SCCCF)c2)c2nc3ccccc3[nH]2)CC1 (stereo not shown) (as salt: oxalate) [Example 508] | 85 °C
CN1CCC(OC(c2cccc(OCCCN3CCOCC3)c2)c2nc3ccccc3s2)CC1 (stereo not shown) (as salt: oxalate) [Example 350, 2-{(1-methylpiperidin-4-yloxy)[3-(3-morpholin-4-yl-propoxy)phenyl]methyl}benzothiazole] | 105 °C
CN1CCC(OC(c2cccc(N3CCC(O)C3)c2)c2nc3ccccc3s2)CC1 (stereo not shown) (as salt: oxalate) [Example 407, 1-{3-[benzothiazol-2-yl(1-methylpiperidin-4-yloxy)methyl]phenyl}pyrrolidin-3-ol] | 106 °C
CN1CCC(OC(c2cccc(-n3cccn3)c2)c2nc3ccccc3s2)CC1 (stereo not shown) (as salt: oxalate) [Example 147, 2-[(1-methylpiperidin-4-yloxy)(3-pyrazol-1-ylphenyl)methyl]benzothiazole] | 89 °C
CCCCOc1cccc(C(NC2CCN(C)CC2)c2nc3ccccc3[nH]2)c1 (stereo not shown) (as salt: oxalate) [Example 69, [(1H-benzimidazol-2-yl)(3-butoxyphenyl)methyl](1-methylpiperidin-4-yl)amine] | 137 °C
CC(=O)CCCOc1cccc(C(OC2CCN(C)CC2)c2nc3ccccc3s2)c1 (stereo not shown) (as salt: oxalate) [Example 186, 5-{3-[benzothiazol-2-yl(1-methylpiperidin-4-yloxy)methyl]phenoxy}pentan-2-one] | 72 °C
CN1CCC(NC(c2cccc(OCCOc3ccccc3)c2)c2nc3ccccc3[nH]2)CC1 (stereo not shown) (as salt: oxalate) [Example 106, {(1H-benzimidazol-2-yl)[3-(2-phenoxyethoxy)phenyl]methyl}(1-methylpiperidin-4-yl)amine] | 140 °C
CN1CCC(OC(c2cccc(N3CCCC3CO)c2)c2nc3ccccc3s2)CC1 (stereo not shown) (as salt: oxalate) [Example 323, (1-{3-[benzothiazol-2-yl(1-methylpiperidin-4-yloxy)methyl]phenyl}pyrrolidin-2-yl)methanol] | 76 °C
C=CCCCOc1cccc(C(OC2CCN(C)CC2)c2nc3ccccc3s2)c1 (stereo not shown) (as salt: oxalate) [Example 168, 2-[(1-methylpiperidin-4-yloxy)(3-pent-4-enyloxy-phenyl)methyl]benzothiazole] | 75 °C
CN1CCC(OC(c2cccc(OCCCO)c2)c2nc3ccccc3s2)CC1 (stereo not shown) (as salt: oxalate) [Example 258, 3-{3-[benzothiazol-2-yl(1-methylpiperidin-4-yloxy)methyl]phenoxy}propan-1-ol] | 79 °C
CN1CCC(OC(c2ccc(Cl)cc2)c2nc3ccccc3s2)CC1 (stereo not shown) (as salt: oxalate) [Example 4, 2-[(4-chlorophenyl)(1-methylpiperidin-4-yloxy)methyl]benzothiazole] | 147 to 148 °C
CN1CCC(OC(c2cccc(CCCCN)c2)c2nc3ccccc3s2)CC1 (stereo not shown) (as salt: oxalate) [Example 366, 4-{3-[benzothiazol-2-yl(1-methylpiperidin-4-yloxy)methyl]phenyl}butylamine] | 100 °C
CN1CCC(OC(c2cccc(N3CCOCC3)c2)c2nc3ccccc3s2)CC1 (stereo not shown) (as salt: oxalate) [Example 243, 2-[(1-methylpiperidin-4-yloxy)(3-morpholin-4-yl-phenyl)methyl]benzothiazole] | 111 °C

Results, then the molecule that gave them:

melting point | Compound
72 °C | CN1CCC(OC(c2cccc(OCCCF)c2)c2nc3ccccc3s2)CC1 (stereo not shown) (as salt: oxalate) [Example 176, 2-[[3-(3-fluoropropoxy)phenyl](1-methylpiperidin-4-yloxy)methyl]benzothiazole]
142 °C | CCSc1cc(C(OC2CCN(C)CC2)c2nc3ccccc3[nH]2)ccc1C (stereo not shown) (as salt: oxalate) [Example 274, 2-[(3-ethylsulfanyl-4-methylphenyl)(1-methylpiperidin-4-yloxy)methyl]-1H-benzimidazole]
80 °C | COCCOc1cccc(C(OC2CCN(C)CC2)c2nc3ccccc3s2)c1 (stereo not shown) (as salt: oxalate) [Example 277, 2-[[3-(2-methoxyethoxy)phenyl](1-methylpiperidin-4-yloxy)methyl]benzothiazole]
185 °C | CN1CCC(OC(c2ccc(N)cc2)c2nc3ccccc3[nH]2)CC1 (stereo not shown) (as salt: hydrochloride) [Example 455, 4-[(1H-benzimidazol-2-yl)(1-methylpiperidin-4-yloxy)methyl]aniline]
99 °C | CN1CCC(OC(c2cccc(OCCCCCNCC(=O)OC(C)(C)C)c2)c2nc3ccccc3s2)CC1 (stereo not shown) (as salt: oxalate) [Example 375, (5-{3-[benzothiazol-2-yl(1-methylpiperidin-4-yloxy)methyl]phenoxy}pentylamino)acetic acid tert-butyl ester]
131 °C | CN1CCC(OC(c2cccc(N3CC4CN(C)CC4C3)c2)c2nc3ccccc3s2)CC1 (stereo not shown) (as salt: oxalate) [Example 485]
88 °C | CCOCCn1c(C(OC2CCN(C)CC2)c2cccc(I)c2)nc2ccccc21 (stereo not shown) (as salt: oxalate) [Example 497, 1-(2-ethoxyethyl)-2-[(3-iodophenyl)(1-methylpiperidin-4-yloxy)methyl]-1H-benzimidazole]
60 °C | CN1CCC(OC(c2cccc(OCCCn3cncn3)c2)c2nc3ccccc3s2)CC1 (stereo not shown) (as salt: oxalate) [Example 348, 2-{(1-methylpiperidin-4-yloxy)[3-(3-[1,2,4]triazol-1-yl-propoxy)phenyl]methyl}benzothiazole]
201 °C | CN1CCC(OC(c2cccc(SCCCCCN)c2)c2nc3ccccc3s2)CC1 (stereo not shown) (as salt: oxalate) [Example 305, 5-{3-[benzothiazol-2-yl(1-methylpiperidin-4-yloxy)methyl]phenylsulfanyl}pentylamine]
106 °C | CN1CCC(OC(c2nc3ccccc3[nH]2)c2ccc(F)cc2F)CC1 (stereo not shown) (as salt: oxalate) [Example 221, 2-[(2,4-difluorophenyl)(1-methylpiperidin-4-yloxy)methyl]-1H-benzimidazole]
144 °C | CN1CCC(NC(c2cccc(Oc3ccccc3)c2)c2nc3ccccc3[nH]2)CC1 (stereo not shown) (as salt: oxalate) [Example 85, [(1H-benzimidazol-2-yl)(3-phenoxyphenyl)methyl](1-methylpiperidin-4-yl)amine]
85 °C | CSc1cccc(C(NC2CCN(C)CC2)c2nc3ccccc3s2)c1 (stereo not shown) (as salt: oxalate) [Example 111, [benzothiazol-2-yl(3-methylsulfanylphenyl)methyl](1-methylpiperidin-4-yl)amine]
105 °C | COc1ccc(F)c(C(OC2CCN(C)CC2)c2nc3ccccc3[nH]2)c1 (stereo not shown) (as salt: oxalate) [Example 486]
174 °C | Cc1ccc(C(OC2CCN(C)CC2)c2nc3ccccc3s2)s1 (stereo not shown) (as salt: oxalate) [Example 19, 2-[(1-methylpiperidin-4-yloxy)(5-methylthiophen-2-yl)methyl]benzothiazole]
50 °C | CN1CCC(NC(c2cccc(SCc3ccccc3)c2)c2nc3ccccc3s2)CC1 (stereo not shown) (as salt: oxalate) [Example 107, [benzothiazol-2-yl(3-benzylsulfanylphenyl)methyl](1-methylpiperidin-4-yl)amine]
90 °C | CN1CCC(OC(c2cccc(CCCCCCNC(=N)N)c2)c2nc3ccccc3s2)CC1 (stereo not shown) (as salt: hydrochloride) [Example 363, N-(6-{3-[benzothiazol-2-yl(1-methylpiperidin-4-yloxy)methyl]phenyl}hexyl)guanidine]
70 °C | CN1CCC(OC(c2cccc(N3CCC(F)C3)c2)c2nc3ccccc3s2)CC1 (stereo not shown) (as salt: oxalate) [Example 430, 2-[[3-(3-fluoropyrrolidin-1-yl)phenyl](1-methylpiperidin-4-yloxy)methyl]benzothiazole]
76 °C | CN1CCC(OC(c2cccc(OCC3CCCN(C)C3)c2)c2nc3ccccc3s2)CC1 (stereo not shown) (as salt: oxalate) [Example 379, 2-[[3-(1-methylpiperidin-3-ylmethoxy)phenyl](1-methylpiperidin-4-yloxy)methyl]benzothiazole]
120 °C | CN1CCC(OC(c2cccc(OCCCN)c2)c2nc3ccccc3s2)CC1 (stereo not shown) (as salt: oxalate) [Example 311, 3-{3-[benzothiazol-2-yl(1-methylpiperidin-4-yloxy)methyl]phenoxy}propylamine]
106 °C | CN1CCC(OC(c2cccc(N3CCC(N(C)C)C3)c2)c2nc3ccccc3s2)CC1 (stereo not shown) (as salt: oxalate) [Example 484]
96 °C | Cc1ccc(C(OC2CCN(C)CC2)c2nc3ccccc3[nH]2)c(Cl)c1 (stereo not shown) (as salt: oxalate) [Example 213, 2-[(2-chloro-4-methylphenyl)(1-methylpiperidin-4-yloxy)methyl]-1H-benzimidazole]
